Measured values taken from ChEMBL document CHEMBL3272201, “Synthesis of tetrazole ribonucleosides and their evaluation as antiviral agents” (J Med Chem, 1976).
The source made the active and inactive calls. The rule behind the calls is not given here.

Tests used:
Assay type in all cases: functional, organism-based
Influenza A virus [1] = assay: (§1) Antiviral activity against Influenza A virus (A2/Asian/J305) infected in Swiss albino mouse assessed as increase in host survival at 25 mg/kg, ip administered 4 hrs before infection, 1 hr after infection followed by twice daily for next 6 days for total of 14 treatments measured on 21st day post-infection; design: dose 25 mg/kg
Influenza A virus [2] = assay: as §1, with “100” for “25”; design: dose 100 mg/kg
Influenza A virus [3] = assay: as §1, with “20” for “25”; design: dose 20 mg/kg

Question: Which Activity (Influenza A virus [1]) does the source give for `NC(=O)Cc1nnnn1[C@@H]1O[C@H](CO)[C@@H](O)[C@H]1O` here?
Answer: inactive

Question: Which Activity (Influenza A virus [2]) does the source give for `OC[C@H]1O[C@@H](n2cnnn2)[C@H](O)[C@@H]1O` here?
Answer: inactive

Question: How did the Activity (Influenza A virus [3]) turn out when `NC(=O)c1ncn([C@@H]2O[C@H](CO)[C@@H](O)[C@H]2O)n1` was run?
Answer: Active

Question: For `NC(=O)c1nnnn1[C@@H]1O[C@H](CO)[C@@H](O)[C@H]1O`, which Activity (Influenza A virus [2]) is on record?
Answer: inactive
